Results from the supplement of paper PMC8967900.

What was measured:
Assay in all cases: selective drug sensitivity score (sDSS, relative to normal bone marrow) (sDSS (score)); higher = more potent and effective on the cell line relative to normal bone marrow cells
Conditions in all cases: 72 h
[1] = test system: PEER
[2] = test system: SUP-B15
[3] = test system: KARPAS-45
[4] = test system: NALL-1
[5] = test system: LC4-1
[6] = test system: JURKAT
[7] = test system: COG-LL-319h
[8] = test system: P12-ICHIKAWA
[9] = test system: TANOUE
[10] = test system: HAL-01
[11] = test system: MOLT-4
[12] = test system: P30-OHKUBO
[13] = test system: MHH-CALL-3
[14] = test system: CCRF-HSB2
[15] = test system: MN-60
[16] = test system: TMD5
[17] = test system: SEM cells
[18] = test system: COG-LL-317
[19] = test system: COG-LL-332h
[20] = test system: ALL-PO
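Further: ALL cell lines in 384-well plates, five doses spanning 10,000-fold, each plate scaled between vehicle and 100 µmol/L benzalkonium chloride controls, sDSS an adapted area-under-curve metric.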

Compound	selective drug sensitivity score [1]	selective drug sensitivity score [2]	selective drug sensitivity score [3]	selective drug sensitivity score [4]	selective drug sensitivity score [5]	selective drug sensitivity score [6]	selective drug sensitivity score [7]	selective drug sensitivity score [8]	selective drug sensitivity score [9]	selective drug sensitivity score [10]	selective drug sensitivity score [11]	selective drug sensitivity score [12]	selective drug sensitivity score [13]	selective drug sensitivity score [14]	selective drug sensitivity score [15]	selective drug sensitivity score [16]	selective drug sensitivity score [17]	selective drug sensitivity score [18]	selective drug sensitivity score [19]	selective drug sensitivity score [20]
CNC(=O)c1ccc(C)c(-n2c(C)cc(OCc3ccc(F)cc3F)c(Br)c2=O)c1 (top concentration 1000 nM)	0	0	0	0.3	0	0.9	0	0	0	2.6	0	4.5	0	0	0	0	1.9	0	0	0
CONC(=O)c1ccccc1Nc1cc(Nc2cc(C)nn2C(C)C)ncc1Cl (top concentration 1000 nM)	-0.94	-0.94	-0.94	-0.94	3.36	-0.94	9.66	-0.94	0.36	2.96	-0.94	-0.94	-0.94	-0.94	-0.94	-0.94	-0.94	-0.94	-0.94	-0.14
CCOc1ccn(-c2ccc(F)cc2)c(=O)c1C(=O)Nc1ccc(Oc2ccnc(N)c2Cl)c(F)c1 (top concentration 2500 nM)	3.9	3.5	2.2	0	0	0	0	3	0	0.1	0.1	1.5	0	3.2	0	0	4.9	0	3.2	2.7
CC[C@@H]1[C@H](F)C(=O)N[C@@H]1COc1nccc2cc(C(N)=O)c(OC)cc12 (top concentration 10000 nM)	1.08	0.98	2.58	-1.32	0.08	0.48	2.88	0.18	-0.22	-1.32	2.48	2.38	1.58	1.88	5.88	-1.32	1.48	1.28	-0.42	2.08
C[C@H]1C[C@@H](n2c(Nc3ccc(OC(F)(F)F)cc3)nc3cc(CCC(=O)O)ccc32)CC(C)(C)C1 (top concentration 10000 nM)	2.16	2.16	2.76	-0.14	0.76	4.26	-0.14	1.26	-0.14	1.16	3.06	-0.14	-0.14	2.56	-0.04	-0.14	0.16	2.56	1.36	2.86
O=C(NCc1ccncc1)C12CC3CC(C1)CC(c1ccc(Cl)cc1)(C3)C2 (top concentration 50000 nM)	2.88	0.18	3.28	3.58	0.18	3.18	-0.62	3.68	-0.72	4.28	1.98	3.18	2.78	2.68	-0.02	0.68	3.88	-0.12	2.08	3.28
O=C(O)c1ccc(CN2CCC(CN[C@@H]3C[C@H]3c3ccccc3)CC2)cc1 (top concentration 100000 nM)	-0.22	-0.52	-0.32	-0.32	-0.02	-0.62	-0.62	-0.62	-0.62	-0.62	-0.62	-0.62	-0.62	-0.12	-0.62	-0.62	0.28	6.48	0.08	2.08
COc1cc(N2CCN(C)CC2)ccc1Nc1nccc(-c2cn(C)c3cnccc23)n1 [AZ191] (top concentration 10000 nM)	-1.92	-2.72	0.98	2.88	-2.72	-3.02	-2.92	-2.22	-4.62	0.88	-3.32	-0.72	-2.72	1.18	-1.92	-4.32	5.58	0.58	-0.02	3.58
Cc1cc(Nc2nc(N[C@@H](C)c3ncc(F)cn3)ncc2Cl)[nH]n1 [AZD1480] (top concentration 1000 nM)	-3.48	0.02	0.32	-1.48	-4.08	-3.68	-1.68	-4.28	-4.28	-0.98	-3.28	-4.18	-1.28	-1.78	-4.28	-1.98	-1.98	-2.78	-3.08	0.72
